# Measured values reported in patent US20180353462A1, “[…] AGENTS […] FLAVONOID DERIVATIVES TARGETING KINASES, SIRTUINS AND ONCOGENIC AGENTS FOR THE TREATMENT OF CANCERS” (priority 2015, published 2018).
# Tests used:
# A498 (Kidney) = assay: WST-1 anticancer cell proliferation assay, A498; assay type: cell-based; conditions: 72 hours
# Protocol: (§1) Bioactivity of the above-described compounds has been verified by an anticancer cell proliferation assay using the WST-1 (4-[3-(4-iodophenyl)-2-(4-nitrophenyl)-2H-5-tetrazolio]-1, 3-benzene disulfonate) colorimetric assay by Roche Life Sciences®. Anticancer activity was tested against several standard cancer cell lines including brain, breast, Kaposi sarcoma, leukemia, lung, melanoma, tenosynovial giant cell tumor, ovarian, pancreatic, colon and prostate cancer. Cells were trypsinized and plated into 96 well plates in 50 μl of media and incubated overnight. The next day approximately 18 hours after plating, 50 μl of media containing the required flavonoid-based pharmaceutical composition was added per well. Cells were plated at a density so that 72 hours post drug addition, the cells will be in log phase (500)-2000 cells/well). The compounds and extracts were solubilized in Dimethyl sulfoxide (DMSO). The cells are allowed to proliferate for 72 hours 37° C. in humidified atmosphere of 5% CO2. The experiment is terminated using WST-1 (Roche®) 10 μl per well and absorbance is read at 450 nm %690 nm. The effect of drugs on growth is assessed as percent of cell viability. The IC50 values were determined from the extract dose versus control growth curves using Graphpad Prism® software. All experiments were carried out in duplicate and the mean results determined.
# A549 (Lung) = assay: WST-1 anticancer cell proliferation assay, A549; assay type: cell-based; conditions: 72 hours
# Protocol: as §1
# UACC-62 (Melanoma) = assay: WST-1 anticancer cell proliferation assay, UACC-62; assay type: cell-based; conditions: 72 hours
# Protocol: as §1
# MiaPaca-2 (Pancreatic) = assay: WST-1 anticancer cell proliferation assay, MiaPaca-2; assay type: cell-based; conditions: 72 hours
# Protocol: as §1
# COLO-205 (Colon) = assay: WST-1 anticancer cell proliferation assay, COLO-205; assay type: cell-based; conditions: 72 hours
# Protocol: as §1
# PC-3 (Prostate) = assay: WST-1 anticancer cell proliferation assay, PC-3; assay type: cell-based; conditions: 72 hours
# Protocol: as §1
# IGROV-1 (Ovarian) = assay: WST-1 anticancer cell proliferation assay, IGROV-1; assay type: cell-based; conditions: 72 hours
# Protocol: as §1
# MCF-7 (Breast) = assay: WST-1 anticancer cell proliferation assay, MCF-7; assay type: cell-based; conditions: 72 hours
# Protocol: as §1
# MMP-9 = MMP-9 (Homo sapiens, UniProt P14780); assay: Inhibition of matrix metalloproteinase, MMP-9; assay type: biochemical; conditions: Table 3 Matrix metalloproteinase
# Description: (§2) Inhibition of Sirtuins, Matrix Metalloproteinase, Bromodomains was Also Confirmed Using Standard Protocols and the Results are Present in Table 2.
# MMP-7 = MMP-7 (Homo sapiens, UniProt P09237); assay: Inhibition of matrix metalloproteinase, MMP-7; assay type: biochemical; conditions: Table 3 Matrix metalloproteinase
# Description: as §2
# MMP-2 = MMP-2 (Homo sapiens, UniProt P08253); assay: Inhibition of matrix metalloproteinase, MMP-2; assay type: biochemical; conditions: Table 3 Matrix metalloproteinase
# Description: as §2
# BCL-2 = BCL-2 (Homo sapiens, UniProt P10415); assay: BCL-2 inhibition; assay type: binding; conditions: Table 3
# [1] = system: CFPAC-1 pancreatic cancer xenograft; assay: Human pancreatic cancer xenograft CFPAC-1 in scid mice; assay type: in vivo; conditions: CFPAC-1 cells implanted on scid mice
# Description: The results of the anticancer activity are presented in Tables 3 and 4 (above) and in FIG. 6, Hela cells shown at (A) and CMK cells at (B) and MV4-11 and MOLT-14 acute myeloid leukemia cells.
# CMK (leukemia) = assay: WST-1 anticancer cell proliferation assay, CMK; assay type: cell-based; conditions: 72 hours
# Protocol: as §1
# SNU-16 (Stomach) = assay: WST-1 anticancer cell proliferation assay, SNU-16; assay type: cell-based; conditions: 72 hours
# Protocol: as §1
# MMP-3 = MMP-3 (Homo sapiens, UniProt P08254); assay: Inhibition of matrix metalloproteinase, MMP-3; assay type: biochemical; conditions: Table 3 Matrix metalloproteinase
# Description: as §2
# MMP-7, sequence (P09237 95-267): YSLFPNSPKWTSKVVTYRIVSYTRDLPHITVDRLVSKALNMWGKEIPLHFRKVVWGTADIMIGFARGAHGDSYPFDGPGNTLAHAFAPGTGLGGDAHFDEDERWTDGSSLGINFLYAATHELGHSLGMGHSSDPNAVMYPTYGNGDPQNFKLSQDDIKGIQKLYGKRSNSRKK
# MMP-2, sequence (P08253 110-660): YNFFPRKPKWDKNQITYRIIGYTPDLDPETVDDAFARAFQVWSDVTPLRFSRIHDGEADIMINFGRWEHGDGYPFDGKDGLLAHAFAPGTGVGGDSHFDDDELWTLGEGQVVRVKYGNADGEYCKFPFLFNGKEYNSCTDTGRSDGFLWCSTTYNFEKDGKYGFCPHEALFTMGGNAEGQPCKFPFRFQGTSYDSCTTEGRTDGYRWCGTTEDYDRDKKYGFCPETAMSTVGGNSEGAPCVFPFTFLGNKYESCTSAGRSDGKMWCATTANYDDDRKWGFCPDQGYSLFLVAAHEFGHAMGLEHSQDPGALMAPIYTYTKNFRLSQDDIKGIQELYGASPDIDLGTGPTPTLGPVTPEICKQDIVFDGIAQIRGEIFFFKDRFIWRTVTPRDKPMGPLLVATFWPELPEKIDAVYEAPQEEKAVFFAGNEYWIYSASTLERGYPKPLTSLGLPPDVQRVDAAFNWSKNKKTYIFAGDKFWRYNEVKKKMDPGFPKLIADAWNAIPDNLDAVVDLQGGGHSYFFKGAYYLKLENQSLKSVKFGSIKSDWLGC
# BCL-2, sequence (P10415 whole entry): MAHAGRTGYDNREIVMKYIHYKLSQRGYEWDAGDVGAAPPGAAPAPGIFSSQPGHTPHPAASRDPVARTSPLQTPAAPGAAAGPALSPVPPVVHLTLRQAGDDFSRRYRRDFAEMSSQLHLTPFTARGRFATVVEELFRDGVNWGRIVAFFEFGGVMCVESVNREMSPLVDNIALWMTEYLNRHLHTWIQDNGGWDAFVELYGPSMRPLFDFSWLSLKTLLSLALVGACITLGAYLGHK
# MMP-3, sequence (P08254 100-477): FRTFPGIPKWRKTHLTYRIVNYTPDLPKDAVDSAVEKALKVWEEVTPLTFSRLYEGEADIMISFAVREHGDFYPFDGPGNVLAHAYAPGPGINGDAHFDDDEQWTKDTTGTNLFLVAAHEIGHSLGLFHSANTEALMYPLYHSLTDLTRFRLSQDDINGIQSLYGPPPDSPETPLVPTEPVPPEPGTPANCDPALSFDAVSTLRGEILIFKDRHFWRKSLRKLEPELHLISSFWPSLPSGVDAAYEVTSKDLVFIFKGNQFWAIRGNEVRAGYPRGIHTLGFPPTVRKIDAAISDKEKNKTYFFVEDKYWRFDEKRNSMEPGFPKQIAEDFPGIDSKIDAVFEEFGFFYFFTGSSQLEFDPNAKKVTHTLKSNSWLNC
# MMP-9, sequence (P14780 94-707): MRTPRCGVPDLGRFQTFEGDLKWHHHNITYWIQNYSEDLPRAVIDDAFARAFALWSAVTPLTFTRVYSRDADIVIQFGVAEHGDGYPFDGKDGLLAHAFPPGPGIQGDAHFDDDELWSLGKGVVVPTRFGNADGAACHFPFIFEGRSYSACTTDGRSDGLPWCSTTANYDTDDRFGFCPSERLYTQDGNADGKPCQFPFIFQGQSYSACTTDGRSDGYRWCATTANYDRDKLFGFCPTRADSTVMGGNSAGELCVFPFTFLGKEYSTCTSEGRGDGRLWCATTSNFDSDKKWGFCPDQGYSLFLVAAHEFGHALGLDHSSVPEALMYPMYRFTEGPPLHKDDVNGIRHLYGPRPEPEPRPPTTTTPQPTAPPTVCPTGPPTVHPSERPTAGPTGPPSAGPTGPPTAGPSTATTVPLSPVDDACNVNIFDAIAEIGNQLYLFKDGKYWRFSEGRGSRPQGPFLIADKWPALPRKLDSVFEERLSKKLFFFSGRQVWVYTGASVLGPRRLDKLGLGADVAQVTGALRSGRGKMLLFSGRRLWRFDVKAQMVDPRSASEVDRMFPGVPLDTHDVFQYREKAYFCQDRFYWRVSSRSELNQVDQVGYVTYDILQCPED
SMILES,IC50 (A498 (Kidney)) [µM],IC50 (A549 (Lung)) [µM],IC50 (UACC-62 (Melanoma)) [µM],IC50 (MiaPaca-2 (Pancreatic)) [µM],IC50 (COLO-205 (Colon)) [µM],IC50 (PC-3 (Prostate)) [µM],IC50 (IGROV-1 (Ovarian)) [µM],IC50 (MCF-7 (Breast)) [µM],IC50 (MMP-9) [µM],IC50 (MMP-7) [µM],IC50 (MMP-2) [µM],IC50 (BCL-2) [µM],inhibition of tumor compared to the control [1],IC50 (CMK (leukemia)) [µM],IC50 (SNU-16 (Stomach)) [µM],IC50 (MMP-3) [µM]
COc1cc(-c2cc(=O)c3c(O)c(C/C=C(\C)CCC=C(C)C)c(O)cc3o2)ccc1O [FBL-03A],17,17,27,16,27,26,29,17,–,–,–,–,–,–,–,–
COc1cc(-c2cc(=O)c3c(O)cc(O)c(CC=C(C)C)c3o2)ccc1O [FBL-03G],–,–,–,–,–,–,–,–,85.4,3.35,6.64,2.49,significant inhibition of tumor,1.78,4.09,66.3
COc1cc(-c2cc(=O)c3c(O)c(CC=C(C)C)c(O)cc3o2)ccc1O [FBL-03B],–,–,–,–,–,–,–,–,–,17.5,115,–,significant inhibition of tumor,11.6,15,–
COc1cc(-c2cc(=O)c3c(O)cc(O)c(C/C=C(\C)CCC=C(C)C)c3o2)ccc1O [FBL-03C],14,9.4,14,9.5,17,20,15,12,–,–,–,–,–,–,–,–
